Patent US10919885B2, “Compounds and uses thereof” (Yumanity Therapeutics, Inc., priority 2018, dated 2021)

Biological target: human SCD1 (Homo sapiens (Human), UniProt O00767)
Experiment: Yeast growth assay, strain expressing human SCD1 as the sole desaturase (reduced growth as surrogate for SCD inhibition)
Format: cell-based
Conditions: yeast with OLE1 deleted expressing human SCD1 from a plasmid; growth read as OD600 after 40 h at 30° C.; top drug concentration 33.3 μM
Experimental: Strains expressing SCD1 or SCD5 as the sole desaturase, the human SCD1 and SCD5 genes were used to evaluate inhibition of SCD1/SCD5 using reduced growth as a surrogate for SCD inhibition. These yeast strains express human SCD1 or SCD5 from a plasmid harbored in a strain in which the yeast OLE1 gene is deleted.
All compound profiling experiments were performed using the same basic protocol. Yeast were cultured using standard techniques in complete synthetic media lacking uracil and containing yeast nitrogen base supplemented with 2% (w/v) glucose (SD-Ura) Starter cultures were inoculated in 3 mL SD-Ura media containing 0.01% tween and 0.2 mM palmitoleic and oleic acid. Cultures were incubated overnight in a 30° C. shaker incubator (225 rpm). Saturated morning cultures were centrifuged, washed in SD-Ura media lacking TWEEN-20 and fatty acids, and then diluted 1:20 in fresh SD-Ura media also lacking TWEEN-20 and fatty acids.
Compound administration was performed in two separate steps. First, 15 μL of SD-Ura was dispensed into clear 384-well assay plates using a MULTIDROP™ Combi reagent dispenser. […] The cultures described above were centrifuged and washed with media lacking TWEEN-20 or oleic and palmitoleic acids.
After yeast delivery, assay plates were incubated under humidified conditions at 30° C. for 40 h. Yeast growth was monitored by reading the OD600 of each well using a microplate reader (Perkin Elmer EnVision™).

Sequence of human SCD1 (O00767 whole entry): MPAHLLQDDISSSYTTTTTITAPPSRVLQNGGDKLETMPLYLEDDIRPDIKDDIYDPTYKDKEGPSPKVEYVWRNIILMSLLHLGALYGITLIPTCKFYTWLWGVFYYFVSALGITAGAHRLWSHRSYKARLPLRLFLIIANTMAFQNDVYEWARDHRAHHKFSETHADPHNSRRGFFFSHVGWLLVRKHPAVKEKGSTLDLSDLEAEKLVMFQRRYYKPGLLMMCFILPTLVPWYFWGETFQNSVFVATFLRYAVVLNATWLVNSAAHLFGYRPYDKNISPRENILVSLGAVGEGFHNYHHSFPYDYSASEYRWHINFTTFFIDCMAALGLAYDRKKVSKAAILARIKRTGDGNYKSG

Molecule | IC50 [µM]
CNC(=O)c1ccc(-c2cc(C(=O)N3CC(c4ccccc4)C3)no2)cc1 [Compound 231, N-methyl-4-(3-(3-phenylazetidine-1-carbonyl)isoxazol-5-yl)benzamide] | > 45
O=C(c1cc(-c2ccc3c(c2)OCO3)on1)N1CCCC1c1cccc(Br)c1 (stereo not shown) [Compound 388] | > 45
O=C(Nc1cnn(Cc2ccccc2)c1)c1cc(-c2ccco2)on1 [Compound 4, N-(1-benzyl-1H-pyrazol-4-yl)-5-(furan-2-yl)isoxazole-3-carboxamide] | 0.09
COc1ccccc1Cn1cc(NC(=O)c2cc(-c3ccccc3)on2)cn1 [Compound 125, N-(1-(2-methoxybenzyl)-1H-pyrazol-4-yl)-5-phenylisoxazole-3-carboxamide] | > 45
O=C(Nc1cnn(Cc2ccccc2F)c1)c1cc(-c2ccccc2)on1 [Compound 111] | 9.4
5-acetyl-N-(1-(3-fluorobenzyl)-1H-pyrazol-4-yl)isoxazole-3-carboxamide [Compound 91] | 0.439
O=C(c1cc(-c2ccc3c(c2)OCO3)on1)N1CCCC1c1ccncc1F (stereo not shown) [Compound 460] | > 45
COc1ccc(C2CCCN2C(=O)c2cc(-c3ccc4c(c3)OCO4)on2)c(F)c1 (stereo not shown) [Compound 452] | > 45
CC(C)c1cc(C(=O)Nc2cnn(Cc3ccccc3)c2)no1 [Compound 117, N-(1-benzyl-1H-pyrazol-4-yl)-5-isopropylisoxazole-3-carboxamide] | 0.026
CC1CN(c2ccccc2)CCN1C(=O)c1cc(-c2ccc3c(c2)OCO3)on1 (stereo not shown) [Compound 270, (5-(benzo[d][1,3]dioxol-5-yl)isoxazol-3-yl)(2-methyl-4-phenylpiperazin-1-yl)methanone] | > 45
O=C(Nc1cnn(CC2CCCCC2)c1)c1cc(-c2ccco2)on1 [Compound 26, N-[1-(cyclohexylmethyl)pyrazol-4-yl]-5-(2-furyl)isoxazole-3-carboxamide] | > 45
COc1ccc(-c2cc(C(=O)N3CCN(c4ccccc4)CC3)no2)cc1OC [Compound 274] | > 45
O=C(Nc1cnn(Cc2cc(F)ccc2Cl)c1)c1cc(-c2ccco2)on1 [Compound 28, N-(1-(2-chloro-5-fluorobenzyl)-1H-pyrazol-4-yl)-5-(furan-2-yl)isoxazole-3-carboxamide] | > 45
O=C(c1cc(-c2ccc3c(c2)OCO3)on1)N1CC(c2ccccc2)C1 [Compound 217, [5-(1,3-benzodioxol-5-yl)isoxazol-3-yl]-(3-phenylazetidin-1-yl)methanone] | 1.57
O=C(c1cc(-c2ccc3c(c2)OCO3)on1)N1CC=C(c2cc(F)ccc2Cl)CC1 [Compound 306, [5-(1,3-benzodioxol-5-yl)isoxazol-3-yl]-[4-(2-chloro-5-fluoro-phenyl)-3,6-dihydro-2H-pyridin-1-yl]methanone] | 3.27
O=C(c1cc(-c2ccccc2)on1)N1CC2(C1)CC(O)(c1ccccc1)C2 [Compound 226, (6-hydroxy-6-phenyl-2-azaspiro[3.3]heptan-2-yl)-(5-phenylisoxazol-3-yl)methanone] | 12
CC(C)c1cc(C(=O)Nc2cnn(Cc3cccc(F)c3)c2)no1 [Compound 60, N-(1-(3-fluorobenzyl)-1H-pyrazol-4-yl)-5-isopropylisoxazole-3-carboxamide] | 0.03
CO[C@H]1CCN(c2cc(C(=O)Nc3cnn(Cc4ccccc4)c3)no2)C1 [Compound 189, (S)—N-(1-benzyl-1H-pyrazol-4-yl)-5-(3-methoxypyrrolidin-1-yl)isoxazole-3-carboxamide] | 0.065
CC(C)c1cc(C(=O)N2CC(Cc3ccccc3)C2)no1 [Compound 251] | > 45
Cc1nn(Cc2ccccc2)c(C)c1NC(=O)c1cc(-c2ccc3c(c2)OCO3)on1 [Compound 5] | > 45
O=C(c1cc(N2CCOCC2)on1)N1CCC[C@H]1c1ccccc1 [Compound 463] | > 45
O=C(c1cc(-c2ccc3c(c2)OCO3)on1)N1CCOc2ccccc21 [Compound 262] | > 45
O=C(Nc1cnn(Cc2cccc(F)c2)c1)c1cc(C2CCCCC2)on1 [Compound 83, 5-cyclohexyl-N-(1-(3-fluorobenzyl)-1H-pyrazol-4-yl)isoxazole-3-carboxamide] | 0.066
O=C(Nc1cnn(Cc2ccccc2)c1)c1cc(-c2nncs2)on1 [Compound 170, N-(1-benzyl-1H-pyrazol-4-yl)-5-(1,3,4-thiadiazol-2-yl)isoxazole-3-carboxamide] | 0.131
O=C(c1cc(-c2ccc3c(c2)OCO3)on1)N1CCCC1c1ccc(Br)cc1 (stereo not shown) [Compound 389] | > 45
COc1ccc([C@@H]2CCCN2C(=O)c2cc(-c3ccc4c(c3)OCO4)on2)cc1 [Compound 359] | > 45

Molecule | IC50 [µM]
O=C(c1cc(N2CCOCC2)on1)N1CC(c2ccccc2)C1 [Compound 248] | 33
O=C(c1cc(-c2ccc3c(c2)OCO3)on1)N1CCCC1C1CCOCC1 (stereo not shown) [Compound 413] | > 45
O=C(c1cc(-c2ccccc2)on1)N1CCC[C@H]1c1ccccc1 [Compound 386] | 30.5
O=C(Nc1cnn(Cc2cnccc2C(F)(F)F)c1)c1cc(-c2ccccc2)on1 [Compound 160, 5-phenyl-N-(1-((4-(trifluoromethyl)pyridin-3-yl)methyl)-1H-pyrazol-4-yl)isoxazole-3-carboxamide] | > 45
O=C(c1cc(-c2ccc3c(c2)OCO3)on1)N1C[C@H](F)C[C@H]1c1ccccc1 [Compound 420] | > 45
N#Cc1ccccc1-c1cc(C(=O)N2CCC[C@H]2c2ccccc2)no1 [Compound 402] | > 45
O=C(Nc1cnn(Cc2ccccc2Cl)c1)c1cc(-c2ccco2)on1 [Compound 23, N-[1-[(2-chlorophenyl)methyl]pyrazol-4-yl]-5-(2-furyl)isoxazole-3-carboxamide] | > 45
N#Cc1ccc(-c2cc(C(=O)N3CCC[C@H]3c3ccccc3)no2)nc1 [Compound 435] | > 45
O=C(Nc1cnn(Cc2cccc(F)c2)c1)c1cc(-c2ccco2)on1 [Compound 30, N-[1-[(3-fluorophenyl)methyl]pyrazol-4-yl]-5-(2-furyl)isoxazole-3-carboxamide] | 0.01
O=C(c1cc(-c2ccc3c(c2)OCO3)on1)N1CCCC1c1nc2ccccc2o1 (stereo not shown) [Compound 461] | > 45
Cn1nccc1-c1ccc2c(C(=O)N3CCC[C@H]3c3ccccc3)noc2c1 [Compound 454] | > 45
O=C(c1cc(-c2ccc(Cl)cn2)on1)N1CC(c2ccccc2)C1 [Compound 241, (5-(5-chloropyridin-2-yl)isoxazol-3-yl)(3-phenylazetidin-1-yl)methanone] | 3.38
O=C(c1cc(-c2ccccc2)on1)N1CCC(c2cccc(F)c2)C1 (stereo not shown) [Compound 339] | > 45
O=C(c1cc(-c2ccc3c(c2)OCO3)on1)N1CCC[C@@H]1C(F)(F)F [Compound 372] | > 45
O=C(Nc1cnn(Cc2cccc(F)c2)c1)c1cc(C2=CCCCC2)on1 [Compound 85, 5-cyclohexenyl-N-(1-(3-fluorobenzyl)-1H-pyrazol-4-yl)isoxazole-3-carboxamide] | 0.011
O=C(c1cc(-c2ccc3c(c2)OCO3)on1)N1CCCC1c1ccnc(Br)c1F (stereo not shown) [Compound 459] | > 45
CC1(c2cc(C(=O)Nc3cnn(Cc4ccccc4)c3)no2)COC1 [Compound 121] | 0.21
O=C(Nc1cnn(Cc2cc(F)ccc2C(F)(F)F)c1)c1cc(-c2ccco2)on1 [Compound 36, N-[1-[[5-fluoro-2-(trifluoromethyl)phenyl]methyl]pyrazol-4-yl]-5-(2-furyl)isoxazole-3-carboxamide] | > 45
O=C(Nc1cc(-c2ccco2)on1)c1cnn(Cc2ccccc2)c1 [Compound 49, 1-benzyl-N-[5-(2-furyl)isoxazol-3-yl]pyrazole-4-carboxamide] | > 45
O=C(Nc1cnn(Cc2ccccc2C(F)(F)F)c1)c1cc(-c2ccco2)on1 [Compound 14, 5-(furan-2-yl)-N-(1-(2-(trifluoromethyl)benzyl)-1H-pyrazol-4-yl)isoxazole-3-carboxamide] | > 45
O=C(Nc1cnn(Cc2ccccc2F)c1)c1cc(-c2ccco2)on1 [Compound 19, N-[1-[(2-fluorophenyl)methyl]pyrazol-4-yl]-5-(2-furyl)isoxazole-3-carboxamide] | 0.36
COC1(c2ccccc2)CCN(C(=O)c2cc(-c3ccccc3)on2)CC1 [Compound 323] | > 45
COc1ccc(-c2cc(C(=O)N3CCC[C@H]3c3ccccc3)no2)nc1 [Compound 416] | 23.1
O=C(Nc1cnn(Cc2cnccc2C(F)(F)F)c1)c1noc2c1CCCC2 [Compound 194, N-(1-{[4-(trifluoromethyl)pyridin-3-yl]methyl}-1H-pyrazol-4-yl)-4,5,6,7-tetrahydro-1,2-benzoxazole-3-carboxamide] | 25
O=C(c1cc(-c2ccccn2)on1)N1CCC[C@H]1c1ccccc1 [Compound 408] | > 45
Cc1ncc(-c2cc(C(=O)Nc3cnn(Cc4ccccc4)c3)no2)o1 [Compound 164, N-(1-benzyl-1H-pyrazol-4-yl)-5-(2-methyloxazol-5-yl)isoxazole-3-carboxamide] | 11
